How the values were obtained:
Assay in all cases: NCI-60 SRB screen
Format in all cases: cell-based
SK-MEL-28 = details: Homo sapiens; SK-MEL-28, 10^–5 Molar; read-out: Percent growth inhibition
In short: (§1)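 Percent growth inhibition at 10^−5 M, 48 h. Sulforhodamine B read-out at […] following cold TCA fixation; Tz plates fixed when compound was added.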

MDA-MB-231/ATCC = details: Homo sapiens, 10^–5 Molar, read-out: Percent growth inhibition
In short: (§2)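 Testing used one 10^−5 M dose. Plates were incubated 48 h at 37 °C in 5% CO2 before fixation, staining with 0.4% (w/v) SRB in 1% acetic acid, solubilisation in trizma base and reading at […].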

OVCAR-4 = details: Homo sapiens; OVCAR-4, 10^–5 Molar; read-out: Percent growth inhibition
In short: as §1

HCT-116 = details: Homo sapiens; HCT-116, 10^–5 Molar; read-out: Percent growth inhibition
In short: as §1

CAKI-1 = details: Homo sapiens; CAKI-1, 10^–5 Molar; read-out: Percent growth inhibition
In short: as §1

OVCAR-5 = details: Homo sapiens; OVCAR-5, 10^–5 Molar; read-out: Percent growth inhibition
In short: as §2

ACHN = details: Homo sapiens, 10^–5 Molar, read-out: Percent growth inhibition
In short: as §2

MDA-MB-468 = details: Homo sapiens; MDA-MB-468, 10^–5 Molar; read-out: Percent growth inhibition
In short: as §1

HOP-92 = details: Homo sapiens; HOP-92, 10^–5 Molar; read-out: Percent growth inhibition
In short: as §1

HCC-2998 = details: Homo sapiens; HCC-2998, 10^–5 Molar; read-out: Percent growth inhibition
In short: as §1

SF-539 = details: Homo sapiens; SF-539, 10^–5 Molar; read-out: Percent growth inhibition
In short: as §1

UACC-62 = details: Homo sapiens; UACC-62, 10^–5 Molar; read-out: Percent growth inhibition
In short: as §2

LOX IMVI = details: Homo sapiens, 10^–5 Molar, read-out: Percent growth inhibition
In short: as §2

SNB-19 = details: Homo sapiens; SNB-19, 10^–5 Molar; read-out: Percent growth inhibition
In short: as §2

NCI/ADR-RES = details: Homo sapiens, 10^–5 Molar, read-out: Percent growth inhibition
In short: as §2

melanoma SK-MEL-5 = details: Homo sapiens; SK-MEL-5, 10^–5 Molar; read-out: Percent growth inhibition
In short: as §2

A549/ATCC = details: Homo sapiens, 10^–5 Molar, read-out: Percent growth inhibition
In short: as §1

NCI-H522 = details: Homo sapiens; NCI-H522, 10^–5 Molar; read-out: Percent growth inhibition
In short: as §1

NCI-H460 = details: Homo sapiens; NCI-H460, 10^–5 Molar; read-out: Percent growth inhibition
In short: as §1

HS 578T = details: Homo sapiens, 10^–5 Molar, read-out: Percent growth inhibition
In short: as §1

U251 = details: Homo sapiens, U-251; U251, 10^–5 Molar; read-out: Percent growth inhibition
In short: as §1

RXF 393 = details: Homo sapiens, 48 h; RXF 393, 10^–5 Molar; read-out: Percent growth inhibition
In short: as §1

EKVX = details: Homo sapiens, 10^–5 Molar, read-out: Percent growth inhibition
In short: as §1

BT-549 = details: Homo sapiens; BT-549, 10^–5 Molar; read-out: Percent growth inhibition
In short: as §1

Compound | inhibition at 10 µM (SK-MEL-28) [%] | inhibition at 10 µM (MDA-MB-231/ATCC) [%] | inhibition at 10 µM (OVCAR-4) [%] | inhibition at 10 µM (HCT-116) [%] | inhibition at 10 µM (CAKI-1) [%] | inhibition at 10 µM (OVCAR-5) [%] | inhibition at 10 µM (ACHN) [%] | inhibition at 10 µM (MDA-MB-468) [%] | inhibition at 10 µM (HOP-92) [%] | inhibition at 10 µM (HCC-2998) [%] | inhibition at 10 µM (SF-539) [%] | inhibition at 10 µM (UACC-62) [%] | inhibition at 10 µM (LOX IMVI) [%] | inhibition at 10 µM (SNB-19) [%] | inhibition at 10 µM (NCI/ADR-RES) [%] | inhibition at 10 µM (melanoma SK-MEL-5) [%] | inhibition at 10 µM (A549/ATCC) [%] | inhibition at 10 µM (NCI-H522) [%] | inhibition at 10 µM (NCI-H460) [%] | inhibition at 10 µM (HS 578T) [%] | also measured
CCn1cc(C(=O)O)c(=O)c2cc(F)c(N3CCN(CC(=O)Nc4ccccc4)C(C)C3)c(F)c21 (stereo not shown) [Compound 5a, 1-Ethyl-6,8-difluoro-7-(3-methyl-4-(2-oxo-2-(phenylamino)ethyl)piperazin-1-yl)-4-oxo-1,4-dihydroquinoline-3-carboxylic acid] | 3 | 12.9 | 17.6 | 0.13 | 13 | 1.71 | 2.19 | 7.38 | 2.95 | 0.15 | 0.89 | 21.8 | 11.5 | 0.85 | 3.34 | 0.76 | 2.07 | 7.5 | 0.79 | 8.88 | –
CCn1cc(C(=O)O)c(=O)c2cc(F)c(N3CCN(C(=O)c4ccc([N+](=O)[O-])cc4)C(C)C3)c(F)c21 (stereo not shown) [Compound 7d, 1-Ethyl-6,8-difluoro-7-(3-methyl-4-(4-nitrobenzoyl)piperazin-1-yl)-4-oxo-1,4-dihydroquinoline-3-carboxylic acid] | – | 8.63 | 8.82 | 2.1 | 17.6 | 9.27 | 2.14 | 2.79 | 0.34 | – | 8.54 | 10.9 | 9.8 | 3.31 | 3.34 | 0.86 | – | 0.62 | – | 8.17 | –
CCn1cc(C(=O)O)c(=O)c2cc(F)c(N3CCN(C(=O)c4ccccc4)C(C)C3)c(F)c21 (stereo not shown) [Compound 7a, 7-(4-Benzoyl-3-methylpiperazin-1-yl)-1-ethyl-6,8-difluoro-4-oxo-1,4-dihydroquinoline-3-carboxylic acid] | 4.44 | 16.6 | 20.5 | – | 15.4 | 5.65 | 5.78 | 4.54 | 31.8 | 5.26 | 10.7 | 25 | 19.1 | – | 20.4 | 6.55 | – | 9.08 | 4.91 | 18.1 | inhibition at 10 µM (U251): 2.73%; inhibition at 10 µM (RXF 393): 6.68%; inhibition at 10 µM (EKVX): 1.21%; inhibition at 10 µM (BT-549): 3.33%
CCn1cc(C(=O)O)c(=O)c2cc(F)c(N3CCN(C(=O)c4ccc(Cl)cc4)C(C)C3)c(F)c21 (stereo not shown) [Compound 7c, 7-(4-(4-Chlorobenzoyl)-3-methylpiperazin-1-yl)-1-ethyl-6,8-difluoro-4-oxo-1,4-dihydroquinoline-3-carboxylic acid] | 2.92 | 14.3 | 18.9 | 0.17 | 14.9 | 2.81 | 4.45 | 3.92 | – | – | 5.06 | 18.9 | 4 | 6.42 | 13.8 | 2.21 | 1.75 | 9.51 | 1.66 | 5.57 | inhibition at 10 µM (RXF 393): 0.35%

Reference: paper PMC10940605, “Design, synthesis and in vitro anticancer activity of some new lomefloxacin derivatives” (Scientific Reports, 2024)
